US6121257A, “Sulfamate containing macrocyclic immunomodulators” (Abbott Laboratories, priority 1999, dated 2000)

Columns and labels:
in vivo = experiment: in vivo; parameters: species or system Lewis rats; conditions: rat, 5 mg/kg
Experimental: In Vivo Assay of Biological Activity Whole blood concetration in the Rat.
Lewis rats (obtained from Charles River, Wilmington, Mass.), weighing 225-250 grams, were acclimated for one week in a AAALAC approved facility. All animals were fasted overnight prior to dosing and throughout the study period but were permitted free access to water. Groups of animals were given FK-506 or Example 14 at a dose of 5 mg/kg. Drugs were given in a 2 ml/kg volume of 10% ethanol, 40% propylene glycol and 2% cremophore in 5% dextrose solution for both oral (p.o.) and intraperitoneal (i.p.) administration, and in a 1 ml/kg volume of the same vehicle without cremophor for intravenous (i.v.) dosing. Blood samples were collected from the tail vein in heparinized tubes at selected time points 0.25, 2.0, and 4.0 hours after dosing.
Drugs were separated from the hemolyzed whole blood contaminants utilizing liquid-liquid extraction with ethyl acetate:hexane (1:1 by volume). Samples were centrifuged at 1200 x g for 10 minutes (4° C.) and a constant volume of the organic layer was transferred to a conical centrifuge tube and evaporated to dryness with a gentle stream of dry air over low heat (~35° C.). The samples were reconstituted with 40% (v/v) acetonitrile in water with vortexing. The compounds of interest were separated from the co-extracted components by a 5 cm×4.6 mm, 3 μm Spherisorb ODS-2 column (Regis, Morton Grove, Ill.) with an acetonitrile:methanol: 0.1% trifluoroacetic acid/0.01 M tetramethylammonium perchlorate mixture (45:5:50 by volume for FK506, 40:5:55 for analogue Example 14) at a flow rate of 1.0 ml/min with UV detection at 205 nm. The temperature of the HPLC column was maintained at 70° C.
The concentration of each sample in whole blood was calculated by a least squares linear regression analysis of the peak area compared to spiked rat blood standards.

[1] = test system: human mixed lymphocyte reaction (MLR); experiment: human mixed lymphocyte reaction (MLR) assay; type: cell-based; conditions: Table 1
Experimental: The immunosuppressant activity of the compounds of the present invention was determined using the human mixed lymphocyte reaction (MLR) assay described by Kino, T. et al., in Transplantation Proceedings, XIX(5):36-39, Suppl. 6 (1987), hereby incorporated by reference.

Row | concentration at 0.25 h (in vivo) | concentration at 2 h (in vivo) | concentration at 4 h (in vivo) | IC50 [1] | Whole Blood Concentration at 4 hours (in vivo; 240 min) | Compound | elimination from the blood (in vivo)
1 | 1140 ng/mL | 440 ng/mL | 430 ng/mL | – | – | C=CC[C@@H]1/C=C(\C)C[C@H](C)C[C@H](OC)[C@H]2O[C@@](O)(C(=O)C(=O)N3CCCC[C@H]3C(=O)O[C@H](/C(C)=C/[C@@H]3CC[C@@H](O)[C@H](OC)C3)[C@H](C)[C@@H](O)CC1=O)[C@H](C)C[C@@H]2OC [FK-506, reference compound] | –
2 | 1400 ng/mL | 50 ng/mL | – | 0.82 nM | 0.00 µg/mL | CC[C@@H]1/C=C(\C)C[C@H](C)C[C@H](OC)[C@H]2O[C@@](O)(C(=O)C(=O)N3CCCC[C@H]3C(=O)O[C@H](/C(C)=C/[C@@H]3CC[C@@H](OS(N)(=O)=O)[C@H](OC)C3)[C@H](C)[C@@H](O)CC1=O)[C@H](C)C[C@@H]2OC [Example 14] | rapidly eliminated from the blood after 2 hours
